According to US20230416256A1, “SMALL MOLECULE INHIBITORS OF NF-kB INDUCING KINASE” (Janssen Pharmaceutica NV, priority 2020, published 2023):
Where two headings read alike, the source gives them in different places.

Legend:
[1] = biological target: recombinant human NF-kappaB-inducing kinase (NIK/MAP3K14) (Homo sapiens, UniProt Q99558); assay: Inhibition of auto-phosphorylation of recombinant human NIK/MAP3K14 activity (AlphaScreen); format: biochemical; conditions: GST-tagged NIK/MAP3K14 1 nM, 5 μM ATP, 2 h at 25° C.; average of values obtained
Sequence of recombinant human NF-kappaB-inducing kinase (NIK/MAP3K14) (Q99558 whole entry): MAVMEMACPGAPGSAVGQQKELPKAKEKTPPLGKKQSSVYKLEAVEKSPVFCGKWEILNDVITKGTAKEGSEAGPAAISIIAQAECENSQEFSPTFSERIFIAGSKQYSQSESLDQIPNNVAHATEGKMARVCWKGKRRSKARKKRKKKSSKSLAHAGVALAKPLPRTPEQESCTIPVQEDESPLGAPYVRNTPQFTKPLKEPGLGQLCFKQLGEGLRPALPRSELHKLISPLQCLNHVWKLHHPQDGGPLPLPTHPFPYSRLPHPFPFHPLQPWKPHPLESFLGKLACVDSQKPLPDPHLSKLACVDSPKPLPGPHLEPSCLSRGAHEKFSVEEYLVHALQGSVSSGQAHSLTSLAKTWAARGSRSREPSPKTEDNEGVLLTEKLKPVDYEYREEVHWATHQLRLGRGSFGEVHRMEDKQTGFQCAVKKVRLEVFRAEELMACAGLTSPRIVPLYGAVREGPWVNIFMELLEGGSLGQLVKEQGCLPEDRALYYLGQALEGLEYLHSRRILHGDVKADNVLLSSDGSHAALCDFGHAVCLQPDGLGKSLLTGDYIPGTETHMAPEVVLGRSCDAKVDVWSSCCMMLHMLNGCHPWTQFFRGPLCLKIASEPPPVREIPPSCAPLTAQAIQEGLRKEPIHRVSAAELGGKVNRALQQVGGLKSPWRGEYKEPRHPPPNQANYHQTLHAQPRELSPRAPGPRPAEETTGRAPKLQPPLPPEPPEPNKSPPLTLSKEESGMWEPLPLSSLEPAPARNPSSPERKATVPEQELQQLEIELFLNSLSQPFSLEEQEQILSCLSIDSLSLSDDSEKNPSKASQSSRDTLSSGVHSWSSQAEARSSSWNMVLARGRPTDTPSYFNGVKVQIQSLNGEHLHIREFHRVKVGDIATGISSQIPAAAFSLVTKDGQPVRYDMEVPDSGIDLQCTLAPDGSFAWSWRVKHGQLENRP
Method: Inhibition of Auto-Phosphorylation of Recombinant Human NF-kappaB-Inducing Kinase (NIK/MAP3K14) Activity (AlphaScreen®)
NIK/MAP3K14 auto-phosphorylation activity was measured using the AlphaScreen® (αscreen) format (Perkin Elmer). All compounds tested were dissolved in dimethyl sulfoxide (DMSO) and further dilutions were made in assay buffer. The final DMSO concentration was 0.7% (v/v) in assays. The assay buffer was 50 mM Tris pH 7.5 containing 1 mM EGTA (ethylene glycol tetraacetic acid), 1 mM DTT (dithiothreitol), 0.1 mM Na3VO4, 5 mM MgCl2, and 0.01% Tween® 20. The assays were carried out in 384 well Proxiplates (Perkin Elmer). The incubations consisted of the compound, 5 μM Adenosine-5′-triphosphate (ATP), and 1 nM NIK/MAP3K14. Incubations were initiated by the addition of GST-tagged NIK/MAP3K14 enzyme, carried out for 2 h at 25° C. and terminated by addition of stop buffer containing anti-phospho-IKK Ser176/180 antibody. Protein A Acceptor and Glutathione-Donor beads were added before reading using an EnVision Multilabel Plate Reader (Perkin Elmer). The signal obtained in the wells was normalized using high (full enzyme activity, 0.7% DMSO) and low controls (no enzyme activity, 0.7% DMSO, no ATP). IC50's were determined by fitting a sigmoidal curve to % inhibition of control versus Log10 compound concentration.

[2] = test system: p-IKKα levels in L363 (NIK translocated multiple myeloma) cells; assay: Effect of compounds on p-IKKα levels in L363 cells (AlphaLISA SureFire Ultra); format: cell-based, human; conditions: Homo sapiens, 10 μM MG132, 6 h, average of values obtained, read-out: Assay 2 IC50
Method: Effect of Compounds on p-IKKα Levels in L363 (NIK Translocated Multiple Myeloma) Cells
All compounds tested were dissolved and serially diluted in DMSO, 1:3 dilution for 11 points in an Echo compatible plate. 100% DMSO was added to columns 12 and 24 of the plate to serve as high and low signal controls. This compound plate was used to spot 20 nL of compound or DMSO into a Greiner 384 well TC plate (781080). The final DMSO concentration was 0.3% (v/v) in cell assays. Human L363 cells (ATCC) were cultured in RPMI1640 medium supplemented with GlutaMax, non-essential amino acids, sodium pyruvate and 10% fetal bovine serum. Cells were routinely maintained at densities of […]-2×10^6 cells per mL at 37° C. in a humidified 5% CO2 atmosphere incubator. Cells were passaged twice a week splitting back to obtain the low density. The day before the assay, cells were washed twice in HBSS (Hank's Balanced Salt Solution), resuspended in Dulbecco's Modified Eagle Medium (DMEM)+0.5% IgG and protease free BSA (Jackson Immuno Research Laboratories), +/−250 ng/ml recombinant human B-cell activating factor (BAFF/BLyS/TNFSF13B) and incubated overnight at 37° C. in a humidified 5% CO2 atmosphere (bulk stimulation with or without BAFF). The next day, the cell concentration was adjusted to 1×10^7 cells/ml in DMEM+/−250 ng/ml BAFF+/10 μM MG132 and plated at […] into compound or DMSO spotted 384 well TC plates. Seeded cells were incubated at 37° C. in a humidified 5% CO2 atmosphere for 6 h. After 6 h, the plates were removed from the incubator and cell lysis was achieved by the addition of 2.5 μl 5×lysis buffer containing protease and phosphatase inhibitors, followed by shaking on a plate shaker at room temperature for 15 min. At the end of this incubation, lysed cells were sequentially treated and incubated with acceptor and donor bead mixes according to the manufacturer's protocol for a 1 plate/2-incubation suspension cell assay (AlphaLISA SureFire Ultra p-IKKa (Ser 176/180) Assay Kit (Perkin Elmer). Plates were read using an EnVision Multilabel Plate Reader (Perkin Elmer). Within an experiment, a concentration response curve for each compound was run in duplicate. The signal obtained in the test wells was normalized using high signal (BAFF stimulated cells, DMSO, MG132) and low signal (unstimulated cells, DMSO) controls. To determine the IC50, a sigmoidal curve was fitted to the plot of % inhibition versus Log10 compound concentration.

[3] = L-363, 6 h, 250 ng/ml BAFF stimulated
[4] = L-363, 250 ng/ml BAFF stimulated

IC50 [2, 3] [nM]	Structure (SMILES)	IC50 [1] [nM]	IC50 [2, 4] [nM]
100 to 500	O[C@@]1(c2cccc(-c3csc(-c4c[nH]c5ncc(C(F)(F)F)cc45)n3)c2)CCn2ccnc21 [Example 25, (R)-7-(3-(2-(5-(Trifluoromethyl)-1H-pyrrolo[2,3-b]pyridin-3-yl)thiazol-4-yl)phenyl)-6,7-dihydro-5H-pyrrolo[1,2-a]imidazol-7-ol]	≤ 100	
≤ 100	N#Cc1cnc2[nH]cc(-c3nc(-c4cccc([C@]5(O)CCn6ccnc65)c4)cs3)c2c1 [Example 26, (R)-3-(4-(3-(7-Hydroxy-6,7-dihydro-5H-pyrrolo[1,2-a]imidazol-7-yl)phenyl)thiazol-2-yl)-1H-pyrrolo[2,3-b]pyridine-5-carbonitrile]	≤ 100	
≤ 100	O[C@@]1(c2cccc(-c3csc(-c4c[nH]c5ncc(Cl)cc45)n3)c2)CCn2ccnc21 [Example 27, (R)-7-(3-(2-(5-Chloro-1H-pyrrolo[2,3-b]pyridin-3-yl)thiazol-4-yl)phenyl)-6,7-dihydro-5H-pyrrolo[1,2-a]imidazol-7-ol]	≤ 100	
100 to 500	CS(=O)(=O)c1cnc2[nH]cc(-c3nc(-c4cccc([C@]5(O)CCn6ccnc65)c4)cs3)c2c1 [Example 28, (R)-7-(3-(2-(5-(Methylsulfonyl)-1H-pyrrolo[2,3-b]pyridin-3-yl)thiazol-4-yl)phenyl)-6,7-dihydro-5H-pyrrolo[1,2-a]imidazol-7-ol]	≤ 100	
≤ 100	O[C@@]1(c2cccc(-c3csc(-c4c[nH]c5nccc(F)c45)n3)c2)CCn2ccnc21 [Example 29, (R)-7-(3-(2-(4-Fluoro-1H-pyrrolo[2,3-b]pyridin-3-yl)thiazol-4-yl)phenyl)-6,7-dihydro-5H-pyrrolo[1,2-a]imidazol-7-ol]	≤ 100	
> 500	O[C@@]1(c2cccc(-c3coc(-c4c[nH]c5ncccc45)c3)c2)CCn2ccnc21 [Example 30, (R)-7-(3-(5-(1H-Pyrrolo[2,3-b]pyridin-3-yl)furan-3-yl)phenyl)-6,7-dihydro-5H-pyrrolo[1,2-a]imidazol-7-ol]	≤ 100	
≤ 100	O[C@@]1(c2cccc(-c3csc(-c4c[nH]c5nccnc45)n3)c2)CCn2ccnc21 [Example 41, (R)-7-(3-(2-(5H-Pyrrolo[2,3-b]pyrazin-7-yl)thiazol-4-yl)phenyl)-6,7-dihydro-5H-pyrrolo[1,2-a]imidazol-7-ol]	≤ 100	
> 500	O[C@]1(c2cccc(-c3csc(-c4c[nH]c5nccnc45)n3)c2)CCn2ccnc21 [Example 42, (S)-7-(3-(2-(5H-Pyrrolo[2,3-b]pyrazin-7-yl)thiazol-4-yl)phenyl)-6,7-dihydro-5H-pyrrolo[1,2-a]imidazol-7-ol]	100 to 500	
	O=C1N(CC(F)(F)F)CC[C@]1(O)c1cccc(-c2csc(-c3c[nH]c4nccnc34)n2)c1 [Example 43, (S)-3-(3-(2-(5H-Pyrrolo[2,3-b]pyrazin-7-yl)thiazol-4-yl)phenyl)-3-hydroxy-1-(2,2,2-trifluoroethyl)pyrrolidin-2-one]	> 500	> 500
	O=C1N(CC(F)(F)F)CC[C@@]1(O)c1cccc(-c2csc(-c3c[nH]c4nccnc34)n2)c1 [Example 44, (R)-3-(3-(2-(5H-Pyrrolo[2,3-b]pyrazin-7-yl)thiazol-4-yl)phenyl)-3-hydroxy-1-(2,2,2-trifluoroethyl)pyrrolidin-2-one]	> 500	> 500
	CN1C[C@@](O)(c2cccc(-c3csc(-c4c[nH]c5nccnc45)n3)c2)C1=O [Example 45, (S)-3-(3-(2-(5H-Pyrrolo[2,3-b]pyrazin-7-yl)thiazol-4-yl)phenyl)-3-hydroxy-1-methylazetidin-2-one]	> 500	> 500
	CN1C[C@](O)(c2cccc(-c3csc(-c4c[nH]c5nccnc45)n3)c2)C1=O [Example 46, (R)-3-(3-(2-(5H-Pyrrolo[2,3-b]pyrazin-7-yl)thiazol-4-yl)phenyl)-3-hydroxy-1-methylazetidin-2-one]	> 500	> 500
	COc1cnc2[nH]cc(-c3nc(-c4cccc([C@]5(O)CCN(C)C5=O)c4)cs3)c2c1 [Example 49, (R)-3-Hydroxy-3-(3-(2-(5-methoxy-1H-pyrrolo[2,3-b]pyridin-3-yl)thiazol-4-yl)phenyl)-1-methylpyrrolidin-2-one]	≤ 100	100 to 500
	CN1CC[C@@](O)(c2cccc(-c3nc(-c4c[nH]c5ncccc45)sc3CO)c2)C1=O [Example 50, (R)-3-Hydroxy-3-(3-(5-(hydroxymethyl)-2-(1H-pyrrolo[2,3-b]pyridin-3-yl)thiazol-4-yl)phenyl)-1-methylpyrrolidin-2-one]	≤ 100	> 500
	CN1CC[C@@](O)(c2cccc(-c3csc(-c4c[nH]c5ncc(C(=O)O)cc45)n3)c2)C1=O [Example 51, (R)-3-(4-(3-(3-Hydroxy-1-methyl-2-oxopyrrolidin-3-yl)phenyl)thiazol-2-yl)-1H-pyrrolo[2,3-b]pyridine-5-carboxylic acid]	≤ 100	> 500
	CN1CC[C@@](O)(c2cccc(-c3csc(-c4c[nH]c5ncncc45)n3)c2)C1=O [Example 53, (R)-3-(3-(2-(7H-Pyrrolo[2,3-d]pyrimidin-5-yl)thiazol-4-yl)phenyl)-3-hydroxy-1-methylpyrrolidin-2-one]	≤ 100	> 500
	CN1CCC[C@@](O)(c2cccc(-c3csc(-c4c[nH]c5nccnc45)n3)c2)C1=O [Example 54, (R)-3-(3-(2-(5H-Pyrrolo[2,3-b]pyrazin-7-yl)thiazol-4-yl)phenyl)-3-hydroxy-1-methylpiperidin-2-one]	≤ 100	100 to 500
	CN1CCC[C@](O)(c2cccc(-c3csc(-c4c[nH]c5nccnc45)n3)c2)C1=O [Example 55, (S)-3-(3-(2-(5H-Pyrrolo[2,3-b]pyrazin-7-yl)thiazol-4-yl)phenyl)-3-hydroxy-1-methylpiperidin-2-one]	> 500	> 500
	CN1CC[C@@](O)(c2cccc(-c3nc(-c4c(F)[nH]c5ncccc45)cs3)c2)C1=O [Example 56, (R)-3-(3-(4-(2-Fluoro-1H-pyrrolo[2,3-b]pyridin-3-yl)thiazol-2-yl)phenyl)-3-hydroxy-1-methylpyrrolidin-2-one]	100 to 500	> 500
	CN1CC[C@@](O)(c2cccc(-c3csc(-c4c(F)[nH]c5ncccc45)n3)c2)C1=O [Example 57, (R)-3-(3-(2-(2-Fluoro-1H-pyrrolo[2,3-b]pyridin-3-yl)thiazol-4-yl)phenyl)-3-hydroxy-1-methylpyrrolidin-2-one]	100 to 500	> 500
> 500	O[C@]1(c2cccc(-c3nc(-c4c[nH]c5ncccc45)cs3)c2)CCc2scnc21 [Example 58, (S)-4-(3-(4-(1H-Pyrrolo[2,3-b]pyridin-3-yl)thiazol-2-yl)phenyl)-5,6-dihydro-4H-cyclopenta[d]thiazol-4-ol]	100 to 500	
≤ 100	O[C@@]1(c2cccc(-c3nc(-c4c[nH]c5ncccc45)cs3)c2)CCc2scnc21 [Example 59, (R)-4-(3-(4-(1H-Pyrrolo[2,3-b]pyridin-3-yl)thiazol-2-yl)phenyl)-5,6-dihydro-4H-cyclopenta[d]thiazol-4-ol]	≤ 100	
